IC50 data for 25 molecules are collected here from patent publication US8471005B2 (Cephalon, Inc., priority 2008, dated 2013).

One assay deals with T1, ALK (Homo sapiens, UniProt Q9UM73).
T1 construct: host or cells: baculovirus expression system
The assay is described as follows: ALK Kinase Assay (ELISA/TRF, PLC-γ substrate). The following applies: ALK kinase inhibition, 1 μM ATP; read-out: ALK Potency. The format is biochemical. The method in brief:
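PLC-γ substrate coated at 10 μg/mL in TBS; reaction started with 30 ng/ml ALK, run 15 min at 37° C. Phosphoproduct detected by TRF with Eu-N1-labeled PT66 anti-phosphotyrosine antibody. IC50 from sigmoidal variable-slope fit of percent inhibition versus log concentration.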
Background: In an ELISA, binding on a coated surface is turned into a signal by an enzyme label.

The target in another assay is T2, JAK2 (Homo sapiens, UniProt O60674).
T2 construct: host or cells: baculovirus expression system
Description: Recombinant Human JAK2 Kinase Assay (TRF). The class given is biochemical. Conditions: JAK2 kinase inhibition, 0.2 μM ATP; read-out: JAK2 Potency. The method in brief:
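Baculovirus-expressed JAK2 (15 ng/ml) phosphorylated a biotinylated 15-mer peptide captured on Neutravidin, in 20 mM HEPES pH 7.2, 0.2 μM ATP, 1 mM MnCl2, 0.1% BSA, 2.5% DMSO final, 20 min at room temperature. Phosphoproduct detected by time-resolved fluorescence with Eu-N1-labelled PY100 antibody.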

T2 sequence (O60674 whole entry): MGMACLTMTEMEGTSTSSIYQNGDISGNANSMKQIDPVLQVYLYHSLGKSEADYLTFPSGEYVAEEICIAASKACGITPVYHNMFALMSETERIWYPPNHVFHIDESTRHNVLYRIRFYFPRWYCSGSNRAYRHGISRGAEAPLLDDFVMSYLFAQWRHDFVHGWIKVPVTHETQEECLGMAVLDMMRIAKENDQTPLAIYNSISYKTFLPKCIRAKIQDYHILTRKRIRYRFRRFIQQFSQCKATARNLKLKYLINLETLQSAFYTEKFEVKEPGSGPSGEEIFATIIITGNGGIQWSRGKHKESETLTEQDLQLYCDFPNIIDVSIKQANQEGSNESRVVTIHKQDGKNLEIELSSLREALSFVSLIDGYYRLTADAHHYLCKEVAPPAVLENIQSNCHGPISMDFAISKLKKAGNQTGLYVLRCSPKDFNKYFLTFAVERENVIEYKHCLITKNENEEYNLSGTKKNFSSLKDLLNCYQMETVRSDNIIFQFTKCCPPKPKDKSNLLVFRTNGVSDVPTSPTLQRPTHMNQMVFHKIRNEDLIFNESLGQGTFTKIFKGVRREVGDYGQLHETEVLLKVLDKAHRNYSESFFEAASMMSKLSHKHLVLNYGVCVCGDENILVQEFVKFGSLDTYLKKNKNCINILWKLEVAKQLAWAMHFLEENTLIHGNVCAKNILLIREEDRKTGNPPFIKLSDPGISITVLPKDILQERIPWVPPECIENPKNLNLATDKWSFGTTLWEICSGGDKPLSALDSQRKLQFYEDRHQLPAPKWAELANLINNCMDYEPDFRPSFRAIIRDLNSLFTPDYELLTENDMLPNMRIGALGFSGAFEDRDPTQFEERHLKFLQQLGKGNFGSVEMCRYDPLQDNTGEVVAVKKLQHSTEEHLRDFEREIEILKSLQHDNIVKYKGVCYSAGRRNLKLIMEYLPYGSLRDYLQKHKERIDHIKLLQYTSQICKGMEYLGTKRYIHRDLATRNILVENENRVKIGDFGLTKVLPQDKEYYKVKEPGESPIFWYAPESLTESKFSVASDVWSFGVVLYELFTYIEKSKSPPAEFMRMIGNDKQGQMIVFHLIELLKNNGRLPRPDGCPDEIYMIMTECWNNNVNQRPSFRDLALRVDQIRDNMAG
T1 sequence (Q9UM73 19-1620): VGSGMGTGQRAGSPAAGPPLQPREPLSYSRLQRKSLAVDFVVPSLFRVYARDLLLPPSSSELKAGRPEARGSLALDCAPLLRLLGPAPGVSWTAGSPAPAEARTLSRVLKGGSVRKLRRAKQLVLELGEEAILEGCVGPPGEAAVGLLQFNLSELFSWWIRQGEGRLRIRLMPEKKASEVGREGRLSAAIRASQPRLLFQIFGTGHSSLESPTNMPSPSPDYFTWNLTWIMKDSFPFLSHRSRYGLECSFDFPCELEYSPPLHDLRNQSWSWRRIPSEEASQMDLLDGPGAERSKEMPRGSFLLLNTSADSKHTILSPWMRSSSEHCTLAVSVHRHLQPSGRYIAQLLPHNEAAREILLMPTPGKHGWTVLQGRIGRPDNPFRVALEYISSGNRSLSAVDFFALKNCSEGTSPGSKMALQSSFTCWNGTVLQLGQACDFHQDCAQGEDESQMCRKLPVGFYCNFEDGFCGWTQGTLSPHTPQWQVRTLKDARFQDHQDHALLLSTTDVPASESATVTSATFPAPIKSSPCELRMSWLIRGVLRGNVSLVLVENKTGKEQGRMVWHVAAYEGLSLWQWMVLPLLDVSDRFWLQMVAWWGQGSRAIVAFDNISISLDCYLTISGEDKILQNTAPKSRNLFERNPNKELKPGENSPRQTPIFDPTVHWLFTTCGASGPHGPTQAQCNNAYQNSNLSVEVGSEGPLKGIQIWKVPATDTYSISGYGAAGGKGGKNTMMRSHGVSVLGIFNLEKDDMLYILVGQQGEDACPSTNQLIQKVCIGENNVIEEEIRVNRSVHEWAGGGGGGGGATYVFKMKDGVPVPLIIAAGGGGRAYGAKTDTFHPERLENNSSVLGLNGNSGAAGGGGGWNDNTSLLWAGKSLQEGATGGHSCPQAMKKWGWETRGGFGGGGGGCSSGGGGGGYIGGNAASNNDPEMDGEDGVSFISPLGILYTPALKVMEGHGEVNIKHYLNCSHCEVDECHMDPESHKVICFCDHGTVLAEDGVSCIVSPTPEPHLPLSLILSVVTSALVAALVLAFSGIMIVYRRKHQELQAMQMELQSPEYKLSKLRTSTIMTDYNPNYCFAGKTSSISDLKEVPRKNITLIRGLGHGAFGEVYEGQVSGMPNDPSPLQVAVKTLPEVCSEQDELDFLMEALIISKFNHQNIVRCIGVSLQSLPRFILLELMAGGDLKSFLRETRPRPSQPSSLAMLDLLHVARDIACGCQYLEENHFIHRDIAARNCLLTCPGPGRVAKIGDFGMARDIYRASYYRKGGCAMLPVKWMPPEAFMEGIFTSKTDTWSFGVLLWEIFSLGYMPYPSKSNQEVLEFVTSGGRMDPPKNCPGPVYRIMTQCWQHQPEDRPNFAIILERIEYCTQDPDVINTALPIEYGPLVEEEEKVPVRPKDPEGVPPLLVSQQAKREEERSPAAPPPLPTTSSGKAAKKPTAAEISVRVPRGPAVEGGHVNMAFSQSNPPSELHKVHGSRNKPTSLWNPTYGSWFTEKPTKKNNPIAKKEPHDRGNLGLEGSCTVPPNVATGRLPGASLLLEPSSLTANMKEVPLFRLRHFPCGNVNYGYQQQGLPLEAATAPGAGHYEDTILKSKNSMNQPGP

As for `COc1cc2c(cc1Nc1ncc3ccc(-c4ccccc4OC)n3n1)CN(C1COC1)C2` [Example 850, (6-Methoxy-2-oxetan-3-yl-2,3-dihydro-1H-isoindol-5-yl)-[7-(2-methoxy-phenyl)-pyrrolo[2,1-f][1,2,4]triazin-2-yl]-amine], the IC50 at ALK and on JAK2 was < 100 nM throughout.
Regarding `COc1ccccc1-c1ccc2cnc(Nc3ccc4c(c3OC)CN(C3COC3)C4)nn12` [Example 851, (4-Methoxy-2-oxetan-3-yl-2,3-dihydro-1H-isoindol-5-yl)-[7-(2-methoxy-phenyl)-pyrrolo[2,1-f][1,2,4]triazin-2-yl]-amine], the IC50 at ALK and on JAK2 was 100 to 1000 nM in each case.
Consider `COc1cc2c(cc1Nc1ncc3ccc(-c4ccccc4OC)n3n1)CN(C1CCN(C)CC1)C2` [Example 852, [6-Methoxy-2-(1-methyl-piperidin-4-yl)-2,3-dihydro-1H-isoindol-5-yl]-[7-(2-methoxy-phenyl)-pyrrolo[2,1-f][1,2,4]triazin-2-yl]-amine], for which the IC50 at ALK and on JAK2 was < 100 nM throughout.
Turning to `COc1ccccc1-c1ccc2cnc(Nc3ccc4c(c3OC)CN(C3CCN(C)CC3)C4)nn12` [Example 853, [4-Methoxy-2-(1-methyl-piperidin-4-yl)-2,3-dihydro-1H-isoindol-5-yl]-[7-(2-methoxy-phenyl)-pyrrolo[2,1-f][1,2,4]triazin-2-yl]-amine], the IC50 at ALK was < 100 nM; at JAK2, 100 to 1000 nM.
For the molecule `COc1cc(C2CCN(CC(N)=O)CC2)ccc1Nc1ncc2ccc(-c3ccccc3-n3cccn3)n2n1` [Example 854, 2-(4-{3-Methoxy-4-[7-(2-pyrazol-1-yl-phenyl)-pyrrolo[2,1-f][1,2,4]triazin-2-ylamino]-phenyl}-piperidin-1-yl)-acetamide], the results for the IC50 at ALK and on JAK2 were < 100 nM and > 10000 nM, respectively.
As to `COc1cc(C2CCN(CC(N)=O)CC2)ccc1Nc1ncc2ccc(-c3ccncc3OC)n2n1` [Example 857, 2-(4-{3-Methoxy-4-[7-(3-methoxy-pyridin-4-yl)-pyrrolo[2,1-f][1,2,4]triazin-2-ylamino]-phenyl}-piperidin-1-yl)-acetamide], the values for the IC50 at ALK and on JAK2 were < 100 nM and 100 to 1000 nM, respectively.
Consider `COc1cc2c(cc1Nc1ncc3ccc(-c4ccccc4OC)n3n1)CN(CC(N)=O)C2` [Example 864, 2-{5-Methoxy-6-[7-(2-methoxy-phenyl)-pyrrolo[2,1-f][1,2,4]triazin-2-ylamino]-1,3-dihydro-isoindol-2-yl}-acetamide], for which the IC50 at ALK and at JAK2 was < 100 nM throughout.
On to `COc1cc(C2CCN(CC(C)(C)O)CC2)ccc1Nc1ncc2ccc(-c3ccccc3OC)n2n1` [Example 865, 1-(4-{3-Methoxy-4-[7-(2-methoxy-phenyl)-pyrrolo[2,1-f][1,2,4]triazin-2-ylamino]-phenyl}-piperidin-1-yl)-2-methyl-propan-2-ol], for which the IC50 is < 100 nM at ALK and 100 to 1000 nM at JAK2.
Turning to `COc1cc(C2CCN(CC(C)(C)O)CC2)ccc1Nc1ncc2ccc(-c3ccccc3N(C)S(C)(=O)=O)n2n1` [Example 866, N-[2-(2-{4-[1-(2-Hydroxy-2-methyl-propyl)-piperidin-4-yl]-2-methoxy-phenylamino}-pyrrolo[2,1-f][1,2,4]triazin-7-yl)-phenyl]-N-methyl-methanesulfonamide], the IC50 at ALK was < 100 nM; at JAK2, 100 to 1000 nM.
Take `CNC(=O)CN1CCC(c2ccc(Nc3ncc4ccc(-c5ccccc5OC)n4n3)c(OC)c2)CC1` [Example 867, 2-(4-{3-Methoxy-4-[7-(2-methoxy-phenyl)-pyrrolo[2,1-f][1,2,4]triazin-2-ylamino]-phenyl}-piperidin-1-yl)-N-methyl-acetamide]: the values for the IC50 at ALK and on JAK2 were < 100 nM and 100 to 1000 nM, respectively.
For `COc1cc(C2CCN(Cc3ncc[nH]3)CC2)ccc1Nc1ncc2ccc(-c3ccccc3OC)n2n1` [Example 868, {4-[1-(1H-Imidazol-2-ylmethyl)-piperidin-4-yl]-2-methoxy-phenyl}-[7-(2-methoxy-phenyl)-pyrrolo[2,1-f][1,2,4]triazin-2-yl]-amine], the IC50 is < 100 nM on ALK and 100 to 1000 nM at JAK2.
As to `COc1cc2c(cc1Nc1ncc3ccc(-c4ccccc4N(C)S(C)(=O)=O)n3n1)CN(CC(N)=O)C2` [Example 869, 2-(5-{7-[2-(Methanesulfonyl-methyl-amino)-phenyl]-pyrrolo[2,1-f][1,2,4]triazin-2-ylamino}-6-methoxy-1,3-dihydro-isoindol-2-yl)-acetamide], the IC50 is < 100 nM at ALK and 100 to 1000 nM at JAK2.
For the molecule `CNC(=O)CN1CCC(c2ccc(Nc3ncc4ccc(-c5ccccc5N(C)S(C)(=O)=O)n4n3)c(OC)c2)CC1` [Example 870, 2-[4-(4-{7-[2-(Methanesulfonyl-methyl-amino)-phenyl]-pyrrolo[2,1-f][1,2,4]triazin-2-ylamino}-3-methoxy-phenyl)-piperidin-1-yl]-N-methyl-acetamide], the IC50 at ALK was < 100 nM; at JAK2, 100 to 1000 nM.
As for `CCN(c1ccccc1-c1ccc2cnc(Nc3ccc(C4CCN(C[C@H](O)CO)CC4)cc3OC)nn12)S(C)(=O)=O` [Example 872, N-[2-(2-{4-[1-((S)-2,3-Dihydroxy-propyl)-piperidin-4-yl]-2-methoxy-phenylamino}-pyrrolo[2,1-f][1,2,4]triazin-7-yl)-phenyl]-N-ethyl-methanesulfonamide], the IC50 is < 100 nM at ALK and 100 to 1000 nM on JAK2.
As to `CCN(c1ccccc1-c1ccc2cnc(Nc3ccc(C4CCN(C[C@@H](C)O)CC4)cc3OC)nn12)S(C)(=O)=O` [Example 873, N-Ethyl-N-[2-(2-{4-[1-((R)-2-hydroxy-propyl)-piperidin-4-yl]-2-methoxy-phenylamino}-pyrrolo[2,1-f][1,2,4]triazin-7-yl)-phenyl]-methanesulfonamide], the results for the IC50 at ALK and at JAK2 were < 100 nM and 100 to 1000 nM, respectively.
For the molecule `COc1cc2c(cc1Nc1ncc3ccc(-c4ccccc4OC)n3n1)CN(C(=O)OC(C)(C)C)C2` [Example 874, 5-Methoxy-6-[7-(2-methoxy-phenyl)-pyrrolo[2,1-f][1,2,4]triazin-2-ylamino]-1,3-dihydro-isoindole-2-carboxylic acid tert-butyl ester], the IC50 at ALK and at JAK2 was 1000 to 10000 nM in each case.
Turning to `COc1cc2c(cc1Nc1ncc3ccc(-c4ccccc4N(C)S(C)(=O)=O)n3n1)CN(C(=O)OC(C)(C)C)C2` [Example 875, 5-{7-[2-(Methanesulfonyl-methyl-amino)-phenyl]-pyrrolo[2,1-f][1,2,4]triazin-2-ylamino}-6-methoxy-1,3-dihydro-isoindole-2-carboxylic acid tert-butyl ester], the IC50 is 1000 to 10000 nM at ALK and > 10000 nM at JAK2.
`COc1cc2c(cc1Nc1ncc3ccc(-c4ccccc4N(C)S(C)(=O)=O)n3n1)CN(C(C)C)C2` [Example 876, N-{2-[2-(2-Isopropyl-6-methoxy-2,3-dihydro-1H-isoindol-5-ylamino)-pyrrolo[2,1-f][1,2,4]triazin-7-yl]-phenyl}-N-methyl-methanesulfonamide]: the IC50 at ALK is < 100 nM; at JAK2, 100 to 1000 nM.
Take `COc1cc2c(cc1Nc1ncc3ccc(-c4ccccc4OC)n3n1)CN(C(C)C)C2` [Example 877, (2-Isopropyl-6-methoxy-2,3-dihydro-1H-isoindol-5-yl)-[7-(2-methoxy-phenyl)-pyrrolo[2,1-f][1,2,4]triazin-2-yl]-amine]: the IC50 on ALK and at JAK2 was < 100 nM in each case.
As for `COc1cc2c(cc1Nc1ncc3ccc(-c4ccccc4OC)n3n1)CN(C(=O)CN)C2` [Example 878, 2-Amino-1-{5-methoxy-6-[7-(2-methoxy-phenyl)-pyrrolo[2,1-f][1,2,4]triazin-2-ylamino]-1,3-dihydro-isoindol-2-yl}-ethanone], the IC50 at ALK and at JAK2 was < 100 nM each time.
Take `COc1cc2c(cc1Nc1ncc3ccc(-c4ccccc4N(C)S(C)(=O)=O)n3n1)CN(C(=O)CN)C2` [Example 879, N-(2-{2-[2-(2-Amino-acetyl)-6-methoxy-2,3-dihydro-1H-isoindol-5-ylamino]-pyrrolo[2,1-f][1,2,4]triazin-7-yl}-phenyl)-N-methyl-methanesulfonamide]: the IC50 on ALK is < 100 nM; on JAK2, 100 to 1000 nM.
`CC(=O)Nc1cccc(Nc2ncc3ccc(-c4cccc(NC(=O)C(C)(C)C)c4)n3n2)c1` [Example 881, N-{3-[2-(3-Acetylamino-phenylamino)-pyrrolo[2,1-f][1,2,4]triazin-7-yl]-phenyl}-2,2-dimethyl-propionamide]: the IC50 at ALK is 1000 to 10000 nM; at JAK2, < 100 nM.
In the case of `CC(=O)N1CCc2ccc(Nc3ncc4ccc(-c5cccc(NC(=O)C(C)(C)C)c5)n4n3)cc21` [Example 882, N-{3-[2-(1-Acetyl-2,3-dihydro-1H-indol-6-ylamino)-pyrrolo[2,1-f][1,2,4]triazin-7-yl]-phenyl}-2,2-dimethyl-propionamide], the IC50 at ALK is > 10000 nM; on JAK2 it was < 100 nM.
Regarding `CN1CCN(c2cccc(Nc3ncc4ccc(-c5cccc(S(=O)(=O)NC(C)(C)C)c5)n4n3)c2)CC1` [Example 883, N-tert-Butyl-3-{2-[3-(4-methyl-piperazin-1-yl)-phenylamino]-pyrrolo[2,1-f][1,2,4]triazin-7-yl}-benzenesulfonamide], the IC50 on ALK and on JAK2 was < 100 nM throughout.
`CC(=O)Nc1cccc(Nc2ncc3ccc(-c4cccc(S(=O)(=O)N5CC[C@H](O)C5)c4)n3n2)c1` [Example 884, N-(3-{7-[3-((S)-3-Hydroxy-pyrrolidine-1-sulfonyl)-phenyl]-pyrrolo[2,1-f][1,2,4]triazin-2-ylamino}-phenyl)-acetamide]: the figures for the IC50 on ALK and on JAK2 were 1000 to 10000 nM and < 100 nM, respectively.
